These results are taken from paper PMC5010537, “Purification and characterization of laccase from Marasmius species BBKAV79 and effective decolorization of selected textile dyes” (3 Biotech, 2016).

The test relates to T1, laccase from Marasmius sp. BBKAV79.
T1 construct: gene benzenediol:oxygen oxidoreductase; native extracellular enzyme purified from culture supernatant (ammonium sulfate, Sephadex G-100, DEAE-cellulose); monomer, ~75 kDa by native PAGE
Nature of the test: absorbance at […] nm, Lineweaver-Burk plot. The class given is biochemical. The following applies: 100 mM sodium acetate buffer pH 5.5; guaiacol 0.18-10 mM; free enzyme. The text has this:
BBKAV79 | K m and V max of purified laccase from Marasmius sp.

Molecules are shown by their SMILES.

Regarding `COc1ccccc1O` [guaiacol], the Km worked out at 3.03 mM.

The Km is the concentration of substrate that gives half-maximal velocity.
